Where “and” joins values, the source holds several entries; their conditions need not be identical. Equal entries are not always repeated. Where two headings read alike, the source gives them in different places.
Experiments:
[1] = system: HAPT; conditions: cited from earlier work
[2] = target: TbAQP3^W102I/R256L (Trypanosoma brucei brucei, UniProt Q6ZXT2, R256L/W102I); assay: [3H]-pentamidine transport; format: cell-based; conditions: AQP3 W102I/R256L; over 30 minutes
[3] = system: tbaqp2/tbaqp3 null cells; assay: microbe, parasite or virus in culture; format: cell-based, Trypanosoma brucei brucei
[4] = target: TbAQP2 L118M (Trypanosoma brucei brucei, UniProt Q6ZXT3, L118M); assay: [3H]-pentamidine transport; format: cell-based; conditions: AQP2 mutant L118M
[5] = target: TbAQP2^I190T/W192G (Trypanosoma brucei brucei, UniProt Q6ZXT3, I190T/W192G); format: cell-based; conditions: Fig. 3A, exp AQP016-AQP023; AQP2 mutant I190T/W192G
[6] = system: tbaqp2/tbaqp3 null cells expressing TbAQP2 L118M; assay: microbe, parasite or virus in culture; format: cell-based, Trypanosoma brucei brucei
[7] = system: tbaqp2/tbaqp3 null cells expressing TbAQP2 L84M; assay: microbe, parasite or virus in culture; format: cell-based, Trypanosoma brucei brucei; conditions: Trypanosoma brucei
[8] = system: tbaqp2/tbaqp3 null cells expressing TbAQP2 L218M; assay: microbe, parasite or virus in culture; format: cell-based, Trypanosoma brucei brucei; conditions: Trypanosoma brucei
[9] = system: tbaqp2/tbaqp3 null cells expressing TbAQP2^L264R; format: cell-based, Trypanosoma brucei brucei
[10] = target: T1, aqp1/aqp2/aqp3 null cells expressing TbAQP2-WT (Trypanosoma brucei brucei, UniProt Q6ZXT3); assay: Inhibition of [3H]-pentamidine uptake (dose response); format: cell-based; conditions: zero inhibitor point 0.01011
T1 sequence (Q6ZXT3 1-312): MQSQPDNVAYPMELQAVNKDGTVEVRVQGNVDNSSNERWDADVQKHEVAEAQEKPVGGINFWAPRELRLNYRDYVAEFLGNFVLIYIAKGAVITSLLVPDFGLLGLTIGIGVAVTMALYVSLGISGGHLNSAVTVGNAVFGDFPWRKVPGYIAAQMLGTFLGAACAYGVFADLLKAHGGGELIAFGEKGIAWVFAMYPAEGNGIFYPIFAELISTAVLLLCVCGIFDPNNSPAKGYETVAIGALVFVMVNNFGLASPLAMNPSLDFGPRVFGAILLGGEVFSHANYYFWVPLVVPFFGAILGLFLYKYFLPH

[11] = system: T. b. brucei 2T1; assay: Drug sensitivity assay (resazurin); format: cell-based; conditions: Trypanosoma brucei, 48 h drug + 24 h resazurin, read-out: EC50 control 2T1 AVG
Method: The tbaqp2/tbaqp3 null cells ([Baker et al., 2012]) and tbaqp1-2-3 null cells ([Jeacock et al., 2017]) (both obtained from David Horn, University of Dundee, UK) are derived from the 2T1 strain of T. b. brucei ([Alsford and Horn, 2008]). The CRK12 RNAi cell line^28 was obtained from Dr Tansy Hammarton (University of Glasgow, UK) and is also based on the 2T1 cell line; RNAi expression was induced with 1 µg/ml tetracycline in the medium. All experiments were performed with bloodstream form trypanosomes grown in vitro in HMI-11 medium as described ([Wallace et al., 2002]) at 37°C in a 5% CO2 atmosphere. Cultures were routinely maintained in 10 ml of this medium, being seeded at 5 × 10^4 cells/ml and passed to fresh medium at reaching approximately 3 × 10^6 cells/ml after 48 hr. For transport experiments 150 or 200 ml of culture was seeded at the same density in large flasks and incubated until the culture reached late-log phase.
Drug sensitivity assays for T. b. brucei bloodstream forms used the cell viability dye resazurin (Sigma) and were performed exactly as described ([Wallace et al., 2002]; [Bridges et al., 2007]) in 96-well plates with doubling dilutions of test compound, starting at 100 µM, over 2 rows of the plate (23 dilutions plus no-drug control). Incubation time with test compound was 48 hr (37°C/5% CO2), followed by an additional 24 hr in the presence of the dye.

[12] = target: TbAQP2^L258Y (Trypanosoma brucei brucei, UniProt Q6ZXT3, L258Y); assay: [3H]-pentamidine transport; format: cell-based; conditions: 30 nM [3H]-pentamidine
[13] = Trypanosoma brucei, read-out: Alamar blue EC50, MEAN
[14] = Trypanosoma brucei, read-out: Alamar blue EC50, single repeats
[15] = read-out: Alamar blue EC50, MEAN
[16] = read-out: Alamar blue EC50, single repeats

Sequence of TbAQP2 L118M (Q6ZXT3 whole entry L118M): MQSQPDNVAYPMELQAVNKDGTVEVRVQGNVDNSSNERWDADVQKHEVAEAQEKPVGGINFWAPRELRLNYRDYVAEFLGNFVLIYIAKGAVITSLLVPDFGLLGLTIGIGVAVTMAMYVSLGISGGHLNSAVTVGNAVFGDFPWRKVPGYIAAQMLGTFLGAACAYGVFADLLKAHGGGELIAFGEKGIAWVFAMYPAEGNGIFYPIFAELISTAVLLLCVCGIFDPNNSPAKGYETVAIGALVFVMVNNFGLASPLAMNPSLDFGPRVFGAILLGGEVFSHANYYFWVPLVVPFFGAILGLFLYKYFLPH
Sequence of TbAQP2^I190T/W192G (Q6ZXT3 whole entry I190T/W192G): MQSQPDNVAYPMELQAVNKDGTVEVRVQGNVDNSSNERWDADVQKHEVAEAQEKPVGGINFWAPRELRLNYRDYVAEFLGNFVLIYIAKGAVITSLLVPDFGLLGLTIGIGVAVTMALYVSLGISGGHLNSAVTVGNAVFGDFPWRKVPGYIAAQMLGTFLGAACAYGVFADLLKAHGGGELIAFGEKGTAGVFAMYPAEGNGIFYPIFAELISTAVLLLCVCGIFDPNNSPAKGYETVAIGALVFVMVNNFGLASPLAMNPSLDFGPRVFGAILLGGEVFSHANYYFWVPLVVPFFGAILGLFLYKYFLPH
Sequence of TbAQP2^L258Y (Q6ZXT3 whole entry L258Y): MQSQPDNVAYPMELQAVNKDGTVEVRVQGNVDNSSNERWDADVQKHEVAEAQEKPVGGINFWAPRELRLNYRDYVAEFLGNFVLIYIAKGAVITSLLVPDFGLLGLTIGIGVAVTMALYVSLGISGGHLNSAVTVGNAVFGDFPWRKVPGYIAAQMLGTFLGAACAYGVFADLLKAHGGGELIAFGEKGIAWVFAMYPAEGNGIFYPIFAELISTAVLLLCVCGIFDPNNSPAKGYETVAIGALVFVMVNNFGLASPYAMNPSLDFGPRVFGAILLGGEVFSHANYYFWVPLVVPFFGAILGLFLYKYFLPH
Sequence of TbAQP3^W102I/R256L (Q6ZXT2 whole entry W102I/R256L): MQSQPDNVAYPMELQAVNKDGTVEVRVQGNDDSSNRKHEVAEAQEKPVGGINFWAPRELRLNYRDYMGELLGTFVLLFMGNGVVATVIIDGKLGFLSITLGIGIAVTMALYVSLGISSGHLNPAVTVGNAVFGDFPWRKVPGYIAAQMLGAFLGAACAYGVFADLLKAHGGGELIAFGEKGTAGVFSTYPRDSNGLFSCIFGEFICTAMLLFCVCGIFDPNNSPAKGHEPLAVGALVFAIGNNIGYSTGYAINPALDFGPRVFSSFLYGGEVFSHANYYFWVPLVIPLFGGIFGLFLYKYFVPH

N=C(N)c1ccc(OCCCCCOc2ccc(C(=N)N)cc2)cc1 [Pentamidine]
Vmax [1]: 0.0044 ± 0.0004 pmol(10^7 cells)^−1 s^−1
Vmax for HAPT-mediated pentamidine uptake [1]: 9.5 × 10^5 molecules/cell/h and 8.5 × 10^6 molecules/cell/h
Pentamidine transport rate [2]: 1.51E-04 pmol/10E7 cells/s
EC50, percent of AQP2/3 null EC50 [3]: 100.00%
EC50 as percent of AQP2/3 null EC50, MEAN [3]: 100.00%
EC50 as percent of AQP2/3 null EC50, single repeats [3]: 100%
EC50 [3, 13]: 66.3 nM
EC50 [3, 14]: 69.3 nM
EC50 [3, 15]: 72.3 nM
EC50 [3, 16]: 52.1 nM and 77.6 nM and 77.5 nM and 68.9 nM and 70.5 nM
Pentamidine transport rate AVG ([4]; n=3): 0.0006601 pmol/10E7 cells/s
Pentamidine transport rate ([4]; single experiments): 0.000589 pmol/10E7 cells/s and 0.000736 pmol/10E7 cells/s and 0.0006552 pmol/10E7 cells/s
Pentamidine transport rate as percent of +AQP2-WT, AVG [5]: 2.70%
Pentamidine transport rate, AVG [5]: 0.0005659 pmol/10E7 cells/s
EC50 [6, 13]: 34.2 nM
EC50 [6, 14]: 39 nM
EC50 ([6]; Trypanosoma brucei, read-out: EC50 AVG): 34.2 nM
EC50 [6, 16]: 39.5 nM and 24.2 nM
EC50 [7, 15]: 0.43 nM
EC50 ([7]; read-out: EC50 AVG): 0.43 nM
EC50 [8, 15]: 0.63 nM
EC50 ([8]; read-out: EC50 AVG): 0.63 nM
EC50, percent of AQP2/3 null EC50 [9]: 126.58%
pentamidine uptake ([10]; log[inhibitor] -3.60): -1.5e-19
pentamidine uptake ([10]; log[inhibitor] -6.48): 0.001052
pentamidine uptake ([10]; log[inhibitor] -7.00): 0.005102
pentamidine uptake ([10]; log[inhibitor] -7.52): 0.006394
pentamidine uptake ([10]; log[inhibitor] -8.00): 0.007854
pentamidine uptake ([10]; log[inhibitor] -8.48): 0.008733
pentamidine uptake ([10]; log[inhibitor] -9.00): 0.008545
pentamidine uptake ([10]; log[inhibitor] -9.48): 0.009352
EC50 [11]: 15 nM
Pentamidine transport rate [12]: 0.0004 pmol/10E7 cells/s
